Assay results: PubChem BioAssay AID1963986 (Molecular Pharmacology Branch, DTP, NCI, 2024)

Test system: 171881-019-R-J1-PDC tumor spheroid viability
Assay: Anticancer human tumor 171881-019-R-J1-PDC patient-derived invasive breast carcinoma cell line growth inhibition [PI3K]
Settings: spheroids with HUVEC and MSC; for IC50: curve of first compound; for viability, T/C: stronger effect = lower value
Method in brief: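 Targeted small molecules plus PI3K inhibitors, half-log dose series from Cmax (default top 10 microM), were applied to heterotypic spheroids of cancer cells with HUVEC and MSCs. Viability indicated growth inhibition.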

[1] = second compound 0.00316 µM, first compound 0.0316 µM
[2] = second compound 0.00316 µM, first compound 0.1 µM
[3] = second compound 0.00316 µM, first compound 0.316 µM
[4] = second compound 0.00316 µM, first compound 1 µM
[5] = second compound 0.00316 µM, first compound 3.16 µM
[6] = second compound 0.00316 µM, first compound 10 µM
[7] = second compound 0.01 µM, first compound 0.0316 µM
[8] = second compound 0.01 µM, first compound 0.1 µM
[9] = second compound 0.01 µM, first compound 0.316 µM
[10] = second compound 0.01 µM, first compound 1 µM
[11] = second compound 0.01 µM, first compound 3.16 µM
[12] = second compound 0.01 µM, first compound 10 µM
[13] = second compound 0.0316 µM, first compound 0.0316 µM
[14] = second compound 0.0316 µM, first compound 0.1 µM
[15] = second compound 0.0316 µM, first compound 0.316 µM
[16] = second compound 0.0316 µM, first compound 1 µM
[17] = second compound 0.0316 µM, first compound 3.16 µM
[18] = second compound 0.0316 µM, first compound 10 µM
[19] = second compound 0.1 µM, first compound 0.0316 µM
[20] = second compound 0.1 µM, first compound 0.1 µM
[21] = second compound 0.1 µM, first compound 0.316 µM
[22] = second compound 0.1 µM, first compound 1 µM
[23] = second compound 0.1 µM, first compound 3.16 µM
[24] = second compound 0.1 µM, first compound 10 µM
[25] = second compound 0.316 µM, first compound 0.0316 µM
[26] = second compound 0.316 µM, first compound 0.1 µM
[27] = second compound 0.316 µM, first compound 0.316 µM
[28] = second compound 0.316 µM, first compound 1 µM
[29] = second compound 0.316 µM, first compound 3.16 µM
[30] = second compound 0.316 µM, first compound 10 µM
[31] = second compound 1 µM, first compound 0.0316 µM
[32] = second compound 1 µM, first compound 0.1 µM
[33] = second compound 1 µM, first compound 0.316 µM
[34] = second compound 1 µM, first compound 1 µM
[35] = second compound 1 µM, first compound 3.16 µM
[36] = second compound 1 µM, first compound 10 µM
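Note: spheroids exposed to compound for 7 days before viability read.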
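Throughout, for viability, T/C: 100% = DMSO vehicle-treated spheroids.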

SMILES: C#Cc1c(F)ccc2cc(O)cc(-c3ncc4c(N5CC6CCC(C5)N6)nc(OCC56CCCN5CC(F)C6)nc4c3F)c12 (stereo not drawn) + COc1c(OCCCN2CCOCC2)ccc2c3n(c(=NC(=O)c4cnc(N)nc4)nc12)CCN3
- IC50 (second compound 0.00316 µM): 61.3 nM
- IC50 (second compound 0.01 µM): < 31.6 nM
- IC50 (second compound 0.0316 µM): < 31.6 nM
- IC50 (second compound 0.1 µM): < 31.6 nM
- IC50 (second compound 0.316 µM): < 31.6 nM
- IC50 (second compound 1 µM): < 31.6 nM
- viability, T/C [1]: 53.6%
- viability, T/C [2]: 48.2%
- viability, T/C [3]: 30%
- viability, T/C [4]: 20.7%
- viability, T/C [5]: 15.8%
- viability, T/C [6]: 12.8%
- viability, T/C [7]: 38.2%
- viability, T/C [8]: 31.8%
- viability, T/C [9]: 20.4%
- viability, T/C [10]: 15.1%
- viability, T/C [11]: 10.3%
- viability, T/C [12]: 9.69%
- viability, T/C [13]: 18.9%
- viability, T/C [14]: 14.8%
- viability, T/C [15]: 10%
- viability, T/C [16]: 6.62%
- viability, T/C [17]: 5.52%
- viability, T/C [18]: 4.3%
- viability, T/C [19]: 6.23%
- viability, T/C [20]: 4.84%
- viability, T/C [21]: 3.8%
- viability, T/C [22]: 3.03%
- viability, T/C [23]: 2.87%
- viability, T/C [24]: 1.74%
- viability, T/C [25]: 1.68%
- viability, T/C [26]: 1.75%
- viability, T/C [27]: 1.34%
- viability, T/C [28]: 1.08%
- viability, T/C [29]: 0.99%
- viability, T/C [30]: 0.17%
- viability, T/C [31]: 0.8%
- viability, T/C [32]: 0.83%
- viability, T/C [33]: 0.78%
- viability, T/C [34]: 0.83%
- viability, T/C [35]: 0.68%
- viability, T/C [36]: 0.29%

SMILES: C=CC(=O)N1CCN(c2nc(=O)n(-c3c(C)ccnc3C(C)C)c3nc(-c4c(O)cccc4F)c(F)cc23)C(C)C1 (stereo not drawn) + COc1c(OCCCN2CCOCC2)ccc2c3n(c(=NC(=O)c4cnc(N)nc4)nc12)CCN3
- IC50 (second compound 0.00316 µM): 5310 nM
- IC50 (second compound 0.01 µM): < 31.6 nM
- IC50 (second compound 0.0316 µM): < 31.6 nM
- IC50 (second compound 0.1 µM): < 31.6 nM
- IC50 (second compound 0.316 µM): < 31.6 nM
- IC50 (second compound 1 µM): < 31.6 nM
- viability, T/C [1]: 63.5%
- viability, T/C [2]: 70%
- viability, T/C [3]: 50%
- viability, T/C [4]: 66.9%
- viability, T/C [5]: 60.3%
- viability, T/C [6]: 36.9%
- viability, T/C [7]: 45.4%
- viability, T/C [8]: 49.9%
- viability, T/C [9]: 49%
- viability, T/C [10]: 51.3%
- viability, T/C [11]: 43.8%
- viability, T/C [12]: 28.4%
- viability, T/C [13]: 24.2%
- viability, T/C [14]: 25.5%
- viability, T/C [15]: 24.3%
- viability, T/C [16]: 26.2%
- viability, T/C [17]: 25.6%
- viability, T/C [18]: 13.3%
- viability, T/C [19]: 7.99%
- viability, T/C [20]: 8.18%
- viability, T/C [21]: 9.55%
- viability, T/C [22]: 9.16%
- viability, T/C [23]: 8.78%
- viability, T/C [24]: 4.72%
- viability, T/C [25]: 1.86%
- viability, T/C [26]: 1.72%
- viability, T/C [27]: 2.68%
- viability, T/C [28]: 2.25%
- viability, T/C [29]: 2.28%
- viability, T/C [30]: 2.01%
- viability, T/C [31]: 0.96%
- viability, T/C [32]: 0.93%
- viability, T/C [33]: 1.05%
- viability, T/C [34]: 1.41%
- viability, T/C [35]: 1.76%
- viability, T/C [36]: 3.63%

SMILES: CC(Cn1ccc(-c2ccc(C#N)c(Cl)c2)n1)NC(=O)c1cc(C(C)O)[nH]n1 (stereo not drawn) + COc1c(OCCCN2CCOCC2)ccc2c3n(c(=NC(=O)c4cnc(N)nc4)nc12)CCN3
- IC50 (second compound 0.00316 µM): > 10000 nM
- IC50 (second compound 0.01 µM): < 31.6 nM
- IC50 (second compound 0.0316 µM): < 31.6 nM
- IC50 (second compound 0.1 µM): < 31.6 nM
- IC50 (second compound 0.316 µM): < 31.6 nM
- IC50 (second compound 1 µM): < 31.6 nM
- viability, T/C [1]: 64.2%
- viability, T/C [2]: 66.1%
- viability, T/C [3]: 55%
- viability, T/C [4]: 62%
- viability, T/C [5]: 64.5%
- viability, T/C [6]: 48.1%
- viability, T/C [7]: 48.6%
- viability, T/C [8]: 52.4%
- viability, T/C [9]: 45.4%
- viability, T/C [10]: 51.1%
- viability, T/C [11]: 45%
- viability, T/C [12]: 32.2%
- viability, T/C [13]: 22.5%
- viability, T/C [14]: 25.8%
- viability, T/C [15]: 21.9%
- viability, T/C [16]: 22.7%
- viability, T/C [17]: 24.5%
- viability, T/C [18]: 17.4%
- viability, T/C [19]: 6.84%
- viability, T/C [20]: 7.08%
- viability, T/C [21]: 6.29%
- viability, T/C [22]: 6.57%
- viability, T/C [23]: 7.04%
- viability, T/C [24]: 5.04%
- viability, T/C [25]: 1.65%
- viability, T/C [26]: 1.42%
- viability, T/C [27]: 1.54%
- viability, T/C [28]: 1.44%
- viability, T/C [29]: 1.55%
- viability, T/C [30]: 2.61%
- viability, T/C [31]: 1.17%
- viability, T/C [32]: 0.9%
- viability, T/C [33]: 2.01%
- viability, T/C [34]: 1.22%
- viability, T/C [35]: 2.13%
- viability, T/C [36]: 3.1%

SMILES: CC1(C)CCC(Nc2ncc(C(F)(F)F)c(-c3c[nH]c4c(P(C)(C)=O)c(C#N)ccc34)n2)CN1 (stereo not drawn) + COc1c(OCCCN2CCOCC2)ccc2c3n(c(=NC(=O)c4cnc(N)nc4)nc12)CCN3
- IC50 (second compound 0.00316 µM): 4000 nM
- IC50 (second compound 0.01 µM): < 31.6 nM
- IC50 (second compound 0.0316 µM): < 31.6 nM
- IC50 (second compound 0.1 µM): < 31.6 nM
- IC50 (second compound 0.316 µM): < 31.6 nM
- IC50 (second compound 1 µM): < 31.6 nM
- viability, T/C [1]: 51.9%
- viability, T/C [2]: 57.2%
- viability, T/C [3]: 60.6%
- viability, T/C [4]: 69%
- viability, T/C [5]: 63.2%
- viability, T/C [6]: 9.56%
- viability, T/C [7]: 44.6%
- viability, T/C [8]: 49.3%
- viability, T/C [9]: 50.9%
- viability, T/C [10]: 55.3%
- viability, T/C [11]: 45.5%
- viability, T/C [12]: 3.97%
- viability, T/C [13]: 23.4%
- viability, T/C [14]: 27.9%
- viability, T/C [15]: 27.1%
- viability, T/C [16]: 33.2%
- viability, T/C [17]: 23.2%
- viability, T/C [18]: 1.05%
- viability, T/C [19]: 11.1%
- viability, T/C [20]: 11.1%
- viability, T/C [21]: 11.3%
- viability, T/C [22]: 12.7%
- viability, T/C [23]: 7.29%
- viability, T/C [24]: 0.37%
- viability, T/C [25]: 2.05%
- viability, T/C [26]: 1.65%
- viability, T/C [27]: 1.41%
- viability, T/C [28]: 1.53%
- viability, T/C [29]: 0.65%
- viability, T/C [30]: 0.12%
- viability, T/C [31]: 1.55%
- viability, T/C [32]: 0.66%
- viability, T/C [33]: 0.6%
- viability, T/C [34]: 0.51%
- viability, T/C [35]: 1.51%
- viability, T/C [36]: 0.25%
